From patent US12503485B2, “Human aminosterol ENT-03 compounds, related compositions comprising the same, and methods of using the same” (Enterin, Inc., priority 2019, dated 2025)

Experiments:
PTPN1/PTP1B = molecular target: T1, PTPN1/PTP1B (Homo sapiens, UniProt P18031); assay: Phosphatase profiling PTPN1/PTP1B, 10-dose IC50, fluorescence; format: biochemical
T1 construct: The enzyme was the human truncated form (1-321), recombinantly produced in Escherichia coli; host or cells: Escherichia coli
T1 sequence (P18031 1-321): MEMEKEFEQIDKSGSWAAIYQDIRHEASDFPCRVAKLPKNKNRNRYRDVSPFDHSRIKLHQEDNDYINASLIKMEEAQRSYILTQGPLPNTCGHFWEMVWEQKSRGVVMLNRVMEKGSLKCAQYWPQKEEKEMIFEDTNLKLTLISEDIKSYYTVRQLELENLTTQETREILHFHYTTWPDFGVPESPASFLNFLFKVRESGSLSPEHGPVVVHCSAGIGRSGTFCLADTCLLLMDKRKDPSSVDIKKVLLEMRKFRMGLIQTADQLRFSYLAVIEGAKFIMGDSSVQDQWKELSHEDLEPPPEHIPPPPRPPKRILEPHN

[1] = Weight loss in C57bl/6 male mice, once weekly dosing; format: in vivo
[2] = system: transcriptomes of the stomach, jejunum and ileum; format: in vivo; details: aged mice (78 weeks)
hAPP-J20 mice = assay: Morris water maze, hAPP-J20 Alzheimer's mouse model; format: in vivo
[3] = intraperitoneal 3, 5, 10 mg/kg once weekly over 2 weeks
[4] = intraperitoneal once weekly over 6 weeks
[5] = 2.5 mg/kg i.p. once per week for 6 weeks, vs vehicle

## CC(C)[C@@H](CC[C@@H](C)[C@H]1CC[C@H]2[C@@H]3[C@H](O)C[C@H]4C[C@@H](NCCCNCCCCNCCCN)CC[C@]4(C)[C@H]3CC[C@]12C)OS(=O)(=O)O (single isomer, unassigned) [ENT-02, trodusquemine]
PTPN1/PTP1B; Conc 1.00E−04 M
  % Activity: −0.16%
  Slope (signal/min): −68 signal/min
PTPN1/PTP1B; Conc 1.11E−05 M
  % Activity: 0.68%
  Slope (signal/min): 292 signal/min
PTPN1/PTP1B; Conc 1.23E−06 M
  % Activity: 86.43%
  Slope (signal/min): 37260 signal/min
PTPN1/PTP1B; Conc 1.37E−07 M
  % Activity: 93.11%
  Slope (signal/min): 40137 signal/min
PTPN1/PTP1B; Conc 1.52E−08 M
  % Activity: 102.11%
  Slope (signal/min): 44021 signal/min
PTPN1/PTP1B; Conc 3.33E−05 M
  % Activity: −1.02%
  Slope (signal/min): −440 signal/min
PTPN1/PTP1B; Conc 3.70E−06 M
  % Activity: 38.12%
  Slope (signal/min): 16431 signal/min
PTPN1/PTP1B; Conc 4.12E−07 M
  % Activity: 92.69%
  Slope (signal/min): 39959 signal/min
PTPN1/PTP1B; Conc 4.57E−08 M
  % Activity: 99.09%
  Slope (signal/min): 42717 signal/min
PTPN1/PTP1B; Conc 5.08E−09 M
  % Activity: 100.94%
  Slope (signal/min): 43513 signal/min
PTPN1/PTP1B; IC50 curve fit
  HILLSLOPE: −2.19

## CC(CCCC(C)C1CCC2C3C(O)CC4CC(NCCCNCCCCNCCCN)CCC4(C)C3CCC12C)C(=O)O (single isomer, unassigned; ent-03) [ENT-03, 3-β-Spermino-7α-hydroxy-5α-cholestanoic acid]
[1]; [3]
  clinical appearance of treated animals: clinically normal
  weight loss, in words: dose dependent weight loss
[1]; [4]
  clinical appearance of treated animals: clinically normal
  weight loss, in words: dose dependent weight loss
[2]
  genes increased upon treatment that decreased in expression with ageing: 36 genes
hAPP-J20 mice; [5]
  learning during the training phase: improved
  memory on the probe day: improved
hAPP-J20 mice; 2.5 mg/kg/wk i.p. over 6 weeks
  latency to find the hidden platform during the training phase: decreased
